According to patent publication US20080070851A1, “METHOD FOR THE EXTRACTION OF […] ACTIVE PRODUCTS FROM SPERMATOPHYTE PLANTS, PRODUCTS THUS OBTAINED AND THEIR USE IN THE MEDICAL FIELD, IN […] AS SUBSTANCES WITH IMMUNOMODULATING ACTIVITY” (Institudo Agrario Di S. Michele All'Adige, priority 2000, published 2008):

Assays:
[1] = stability of the active agent in culture medium (HPLC quantification); assay type: physicochemical; settings: for halving time in culture medium: culture medium of ex. 10; for amount still present at the end of the test: culture medium of ex. 10, 72 h
Source text: The instrumental conditions are the same as those described above for viniferine. The coefficient of molar extinction of both glucosides is almost the same as the one of the corresponding aglycones, so that they can be added as such after carrying out a correction for molecular weights (Mattivi et al. Isolation, characterization, and evolution in red wine vinification of resveratrol monomers, J. Agric. Food Chem., 1995, 43, 7, 1820-1823).
Zeitschdift fur Lebensmittel-Untersuchung und Forschung, 1993, 196, 522-525. In addition to what is contained in the aforesaid document, it has been verified that the method is suitable for all monomer stilbenes, both free and glucosides, and that the eluted fraction of ethyl acetate can be dried under a light flow of nitrogen, in case it is necessary to carry out the exchange in another solvent and/or to further reduce the limits of quantification.
Said techniques can be used for instance to control the stability of the active agent in culture mediums, and therefore to support in vitro experimental models which are going to be described in the following examples. For instance, the culture for means described in ex.

cyclo-oxygenase = settings: cited from earlier work
[2] = tested on: line HL60 (human promyelocytic acute leukemia); settings: cited from earlier work
platelet aggregation = settings: cited from earlier work
[3] = tested on: line MCF-7 derived from mammary adenocarcinoma; settings: in vitro; cited from earlier work
[4] = tested on: skin cancer induced by carcinogenic substances; settings: in vivo, murine model of skin cancer; cited from earlier work
human lymphocytes = assay: expression of surface antigens CD16, CD4 and CD95 in lymphocytes; assay type: cell-based; settings: dose of 5 mcg/ml
Procedure: (§1) Mononucleated cells of human peripheral blood (PBMC) deriving from healthy subjects have been obtained by separation on gradient (Ficoll-Hypaque) of cells deriving from buffy coat.
PBMC have been resuspended in a concentration of 1×10^6/ml and incubated for different periods of time with various doses of resveratrol. The cells have then been incubated with one or more fluorescent monoclonal antibodies, each being specific for a surface antigen (CD4, CD8, CD16 and CD95), and they have undergone a cytofluorometric analysis using a cytofluorometer FACscan (BD).
(§2) Mononucleated cells of human peripheral blood (PBMC) have been incubated for 18 h with resveratrol in a concentration of 0.625, 1.25, 2.5, 5, 10 and 20 mcg/ml. At the end of the incubation the cells have been tested for their natural cytotoxic activity (NK) against the human erythroleukemic line K 562. […] On the contrary, at doses of 10 and 20 mcg/ml resveratrol induces an inhibition of NK activity.

[5] = tested on: human erythroleukemic line K 562; assay: natural killer (NK) activity of PBMC, 51Cr release; assay type: cell-based; settings: 18 h incubation
Procedure: as §1
PBMC in a concentration of 2×10^6 cells/ml have been treated in vitro with different doses of resveratrol for 18 h. At the end of the incubation the cells have been tested for their natural cytotoxic activity (NK) against the human erythroleukemic line K 562. The cytotoxic activity of the effect-producing cells incubated for 4 hours at 37° C. with K562 has been determined using a cytotoxicity standard test based on the release of ^51Cr by target cells.
as §2

[6] = tested on: PBMC activated with anti-CD3+ anti-CD28; assay: percentage of CD4+ and CD8+ T lymphocytes in activated PBMC; assay type: cell-based, human
Procedure: Mononucleated cells of human peripheral blood (PBMC) deriving from healthy subjects have been obtained by separation on gradient (Ficoll-Hypaque) of cells deriving from buffy coat. PBMC have been resuspended in a concentration of 1×10^6/ml and incubated for different periods of time with various doses of resveratrol.

[7] = tested on: lymphocytes activated with anti-CD3/CD28; assay: apoptosis of activated lymphocytes; assay type: cell-based, human
Source text: as §1
PBMC resuspended in a concentration of 1×10^6/ml have been fixed in acetone/methanol 1:4, treated with 100 KU/ml of RNase and marked with propydium iodide (50 mcg/ml). The cells have then been analyzed by means of flow cytofluorometry using a cytometer FACscan.
PBMC resuspended in a concentration of 1×10^6/ml have been fixed in 4% paraformaldehyde, treated with 100 KU/ml of RNase and marked with propydium iodide. The cells have then been analyzed by means of observation with a confocal microscope (LEIKA TCS 4D).
(§3) Mononucleated cells of human peripheral blood (PBMC) have been activated by incubation with anti-CD3+ anti-CD28 and then incubated with different doses of resveratrol (or DMSO as control) as described above. Non-activated cells deriving from the same buffy coat have been used as control.

[8] = tested on: CD4+ T cells activated with anti-CD3/CD28; assay: cytofluorometric analysis of intracytoplasmatic cytokine levels, CD4+ T cells; assay type: cell-based, human
Source text: as §1
(§4) In vitro production of cytokines induced by activation with monoclonal anti-CD3 antibody carried out by the various T cell underpopulations in PBMC has been evaluated by means of a simultaneous cytofluorometric determination of the intracytoplasmatic cytokine content and of the expression of surface antigens in every single cell. By using said method it has been possible to evaluate the production of cytokines by single cell under-populations without previously physically separating them, and therefore in presence of the interactions in the production of cytokines which take place in physiological systems. The execution of said method is made possible by the use of saponin as reversible permeabilizing agent of cell membrane. In short, PBMC have been resuspended in a concentration of 1×10^6/ml, activated by treatment with anti-CD3 (10 ng/ml) and incubated with various doses of resveratrol. After 3 days of culture at 37° C. in a CO2 incubator, the cells have been treated with anti-CD28 (2 ng/ml) and with resveratrol in the same doses previously used. After further 3 days of treatment, the cells have been incubated with a fluorescent monoclonal antibody specific for a surface antigen (CD4 or CD8), resuspended in a medium with the addition of 0.3% saponin, and marked with an optimal dose of a mixture of anti-cytokine monoclonal antibodies conjugated with various fluorochromes. The samples thus treated have then undergone cytofluorometric analysis using a cytofluorometer FACscan (BD).
as §3, with “control. The percentage of T lymphocytes CD4+ and CD8+ positive for IL2, IL4 and IFN-γ has then been analyzed by means of flow cytofluorometry. […]” for “control.”

[9] = tested on: lymphocytes activated with anti-CD3/CD28; assay: cell proliferation (Coulter count) and DNA synthesis (BrdU incorporation); assay type: cell-based, human
Source text: (§5) Mononucleated cells of human peripheral blood (PBMC) deriving from healthy subjects have been obtained by separation on gradient (Ficoll-Hypaque) of cells deriving from buffy coat. Cell replication has been evaluated by a cellular count carried out using a Coulter Counter. DNA synthesis has been measured by the test of incorporation of bromodeoxyuridine (BrdU) evaluated by flow cytometry using a cytometer FACscan (Becton-Dickinson). Mononucleated cells of human peripheral blood (PBMC) have been activated by incubation with anti-CD3+ anti-CD28 and then incubated with different doses of resveratrol (or DMSO as control) as described above. Non-activated cells deriving from the same buffy coat have been used as control.

[10] = tested on: CD8+ T cells activated with anti-CD3/CD28; assay: cytofluorometric analysis of intracytoplasmatic cytokine levels, CD8+ T cells; assay type: cell-based, human
Source text: as §1, §4
Mononucleated cells of human peripheral blood (PBMC) have been activated by incubation with anti-CD3+ anti-CD28 and then incubated with different doses of resveratrol (or DMSO as control) as described above. Non-activated cells deriving from the same buffy coat have been used as control. The percentage of T lymphocytes CD4+ and CD8+ positive for IL2, IL4 and IFN-γ has then been analyzed by means of flow cytofluorometry. […] The activity peak varies according to the examined cytokine, and precisely: 1.25-2.5 for IFN-γ (FIG. 1A), 0.625 for IL2 (FIG. 1B) and 2.5 for IL4 (FIG. 1C).

[11] = tested on: lymphocytes activated with anti-CD3/CD28; assay: cell mortality of activated lymphocytes; assay type: cell-based, human
Procedure: as §5, with “mortality” for “replication”, “in trypan blue and/or” for “carried out using a Coulter Counter. DNA synthesis has been measured by the test of incorporation of bromodeoxyuridine (BrdU) evaluated”, “(Becton-Dickinson), determining the vitality of unfixed cells which have been marked with propydium iodide (PI).” for “(Becton-Dickinson).”

MT-2 cells = assay: cytotoxic activity of T lymphocytes (CTL), 51Cr release; assay type: cell-based, human; settings: 5 days
Procedure: Mononucleated cells of human peripheral blood (PBMC) deriving from healthy subjects have been obtained by separation on gradient (Ficoll-Hypaque) of cells deriving from buffy coat. […] Mononucleated cells of human peripheral blood (PBMC) have been incubated with resveratrol in a concentration of 0.625, 1.25, 2.5, 5 and 10 mcg/ml in presence of MT-2 cells (line of human T cells deriving from blood of umbilical cord infected with HTLV1) for 5 days at 37° C. At the end of the incubation the cells have been tested for their cytotoxic activity against said MT-2 cells.

## Oc1ccc(/C=C\c2cc(O)cc(O)c2)cc1 [cis-resveratrol]
[1]
  halving time in culture medium: 38 h
  amount still present at the end of the test: about 25%

## Oc1ccc(/C=C/c2cc(O)cc(O)c2)cc1 [trans-resveratrol]
cyclo-oxygenase
  cyclo-oxygenase activity: inhibits
[2]
  cellular cycle of HL60 cells: induce the stop of the cellular cycle in the transition from stage S to stage G2
[2]; high doses
  apoptosis of HL60 cells: induce apoptosis
  expression of CD95L in HL60 cells: regulate the expression of CD95L
[1]
  halving time in culture medium: 28 h
  amount still present at the end of the test: not present as such
Platelet aggregation
  platelet aggregation: inhibits
[3]
  growth of MCF-7 cells: inhibit
[4]
  tumor genesis: inhibit tumor genesis

## Oc1ccc(C=Cc2cc(O)cc(O)c2)cc1 [resveratrol]
Human lymphocytes
  cells which can co-express CD16 and CD95 (CD16+/CD95+ cells): significant increase
  percentage of CD4+/CD95+ cells: does not induce any variation
[5]; dose range of 0.625-5 mcg/ml
  NK activity: statistically significant increase
[5]; doses of 10 and 20 mcg/ml
  NK activity: inhibition
[6]; all tested doses
  percentage of CD4+ cells: does not induce any variation
[6]; dose range of 2.5-10 mcg/ml
  percentage of activated CD8+ cells: dose-dependent decrease
[6]; lower doses (below 2.5 mcg/ml)
  percentage of activated CD8+ cells: does not induce any variation
[7]; dose range of 2.5-10 mcg/ml
  percentage of apoptotic cells: dose-dependent increase
[7]; doses of 0.625 and 1.25 mcg/ml
  apoptosis of activated cells: does not have any effect
[8]; FIG. 2A
  peak of stimulating activity, CD4+ cells positive for IFN-γ: 2.5 µg/mL
[8]; FIG. 2B
  peak of stimulating activity, CD4+ cells positive for IL2: 1.25 to 2.5 µg/mL
[8]; FIG. 2C
  peak of stimulating activity, CD4+ cells positive for IL4: 0.625 µg/mL
[9]; dose range of 2.5-10 mcg/ml, FIGS. 3A and 3B
  cell proliferation: dose-dependent inhibition
[9]; doses of 0.625 and 1.25 mcg/ml, FIG. 3A
  number of treated cells: statistically significant increase
[9]; doses of 0.625 and 1.25 mcg/ml, FIG. 3B
  ability to synthesize DNA: statistically significant increase
[10]; dose of 5 and more significantly 10 mcg/ml
  percentage of CD8+ cells which can synthesize all tested cytokines: inhibition
[10]; dose of peak stimulation, FIG. 1A
  activity peak, CD8+ cells positive for IFN-γ: 1.25 to 2.5 µg/mL
[10]; dose of peak stimulation, FIG. 1B
  activity peak, CD8+ cells positive for IL2: 0.625 µg/mL
[10]; dose of peak stimulation, FIG. 1C
  activity peak, CD8+ cells positive for IL4: 2.5 µg/mL
[10]; dose range 0.625-2.5 mcg/ml, with respect to controls
  percentage of T cells CD8+ positive for intracellular IFN-γ, IL2 and IL4: significant increase
[11]; dose range of 2.5-10 mcg/ml
  mortality of activated cells: dose-dependent increase
[11]; doses of 0.625 and 1.25 mcg/ml
  mortality of activated cells: does not have any effect
MT-2 cells; dose of 0.625 mcg/ml
  cytotoxic activity of T lymphocytes: increase
  number of blast cells: increase
MT-2 cells; dose range of 2.5-10 mcg/ml
  cytotoxic activity of T lymphocytes: inhibition
  number of blast cells: inhibition
